# Where two headings read alike, the source gives them in different places. Peptide text beside a SMILES is read from it.
# Tests used:
# [1] = biological target: T1, DLG2 SH3 domain (aa 536-606) (Homo sapiens, UniProt Q15700); experiment: Fluorescence polarization SH3 domain-PRP binding; details: FP, 0.2 µM fluorescein-labeled peptide, SH3 domain 0-200 µM, Tris/HCl pH 7.5, 25 °C, quadratic fit
# T1 construct: 536-606; GST (N); made in house; host or cells: Escherichia coli CodonPlus, Rosetta, BL21(DE3)
# T1 sequence (Q15700 536-606): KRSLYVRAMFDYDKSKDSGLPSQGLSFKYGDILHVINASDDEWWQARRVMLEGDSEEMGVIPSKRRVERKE
# Description: (§1) The interaction between fluorescein-labeled proline-rich peptides (0.2 µM) and increasing concentrations of SH3 domains (ranging from 0 to 200 µM) was measured in a buffer (containing 30 mM Tris/HCl (pH 7.5), 5 mM MgCl2, and 3 mM DTT at 25 °C) in a total volume of 200 µL using a Fluoromax 4 fluorimeter in polarization mode and a quartz glass fluorescence cuvette (Hellma Ultra-Micro Cuvette 105.250-QS, Thermo Fisher Scientific, Waltham, MA USA). Excitation was performed at 470 nm and emission was measured at 560 nm. Dissociation constants (Kd) were determined by fitting the concentration-dependent binding curve to a quadratic ligand binding equation.
# Fluorescence polarization measurements were performed to determine the binding affinities of SH3 domain–PRP interaction pairs from the dot blot analysis. SH3 proteins were titrated at increasing concentrations against fluorescent PRPs, which were kept at a constant concentration of 0.2 µM. GRB2-2^W193K, which is defective in the binding of PRPs such as RP1, was used as a negative control as previously described. […] The resulting data (Figure S6) allowed the evaluation of equilibrium dissociation constants (Kd) for 45 interactions between the SH3 domains and the PRPs (Figure 2B; Table S6).
# Figure S6. Interactions of the SH3 domains with fluorescent PRPs measured by fluorescence polarization.
# Fluorescent peptides (0.2 µM) were titrated with increasing concentrations of the corresponding SH3 domains.
# GRB2-2W193K, defective in the binding of PRPs such as RP1, was used as a negative control as previously described. The x-axis represents SH3 domain concentrations as GST fusion proteins in µM, while the y-axis represents fluorescence polarization. The equilibrium dissociation constants (Kd) for the respective measurements were determined by fitting the titration curves to a quadratic ligand-binding equation (solid lines). All Kd values are […]
# Error bars are derived from the fitting errors.
# (§2) (1 picture or pasted object on this page, not shown here)
# [2] = biological target: T2, ARHGAP12Set-1 (K28S, R30N, F62G, Y63W) SH3 domain (Homo sapiens, UniProt Q8IWW6, F62G/K28S/R30N/Y63W); experiment: Fluorescence polarization, SH3 domain mutant; assay type: binding; details: ARHGAP12 Set-1 mutant; FP, 0.2 µM fluorescent peptide, quadratic fit
# T2 construct: 12-74; GST (N); made in house; host or cells: Escherichia coli (CodonPlus, Rosetta, BL21(DE3)), pGEX4-T1
# T2 sequence (Q8IWW6 12-74 K28S/R30N/F62G/Y63W): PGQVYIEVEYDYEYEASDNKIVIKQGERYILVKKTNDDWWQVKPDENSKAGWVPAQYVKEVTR
# Description: as §1
# (§3) To better understand the role of the residues of SH3 domains in selective binding to PRPs, we have generated a multiple sequence alignment (Figure S7). It highlights the conserved and variable residues that are likely to be critical for the selectivity and affinity of the SH3 domain–PRM interactions. […] Two different sets of mutations were generated by substituting a combination of amino acids from ARHGAP12 and NCK1-3 for ABL2 and BIN1 and vice versa (Figure 3A; Table S1).
# (§4) Figure S8. Mutational analysis of the SH3-fluorescent PRPs interactions using fluorescence polarization.
# (§5) Fluorescent peptides (0.2 µM) were titrated with increasing concentrations of the corresponding SH3 domain mutants (see Figure 3A and Table S1). The x-axis represents SH3 domain concentrations as GST fusion proteins in µM, while the y-axis represents fluorescence polarization. The equilibrium dissociation constants (Kd) for the respective measurements were determined by fitting the titration curves to a quadratic ligand-binding equation […]
# (§6) (solid lines). Error bars are derived from the fitting errors.
# as §2
# [3] = biological target: T3, NCK1-3Set-2 (N225E, W229G, K244E) SH3 domain (Homo sapiens, UniProt P16333, K244E/N225E/W229G); experiment: Fluorescence polarization, SH3 domain mutant; assay type: binding; details: NCK1-3 Set-2 mutant, FP, 0.2 µM fluorescent peptide, quadratic fit
# T3 construct: 190–252; GST (N); made in house; host or cells: Escherichia coli (CodonPlus, Rosetta, BL21(DE3)), pGEX4-T1
# Description: as §1, §3, §4, §5, §6, §2
SMILES,Kd [1] [µM],further results
CC(C)C[C@H](NC(=O)[C@@H](NC(=O)[C@@H](N)C(C)C)[C@@H](C)O)C(=O)N1CCC[C@H]1C(=O)N[C@@H](Cc1c[nH]cn1)C(=O)NCC(=O)N1CCC[C@H]1C(=O)N[C@@H](CCCNC(=N)N)C(=O)N[C@@H](CO)C(=O)N[C@@H](C)C(=O)O [Peptide P2] (H-VTLPHGPRSA-OH),> 200,–
CC[C@H](C)[C@H](NC(=O)[C@H](CCCCN)NC(=O)[C@H](CO)NC(=O)[C@@H]1CCCN1C(=O)[C@H](CO)NC(=O)[C@H](CO)NC(=O)[C@H](CCC(=O)O)NC(=O)[C@H](C)NC(=O)[C@@H]1CCCN1C(=O)[C@H](C)NC(=O)[C@H](CO)NC(=O)[C@H](CCC(=O)O)NC(=O)[C@@H]1CCCN1C(=O)[C@H](CCCNC(=N)N)NC(=O)[C@H](CCCNC(=N)N)NC(=O)[C@H](CCCNC(=N)N)NC(=O)[C@@H]1CCCN1C(=O)[C@@H]1CCCN1C(=O)[C@@H](NC(=O)[C@@H]1CCCN1C(=O)[C@@H]1CCCN1C(=O)[C@@H]1CCCN1C(=O)[C@@H](NC(=O)[C@@H]1CCCN1C(=O)[C@@H](NC(=O)[C@@H](N)CCC(=O)O)C(C)C)C(C)C)C(C)C)C(=O)O [Peptide P3] (H-EVPVPPPVPPRRRPESAPAESSPSKI-OH),> 200,–
CC[C@H](C)[C@H](N)C(=O)N[C@@H](CO)C(=O)N[C@@H](CC(=O)O)C(=O)N1CCC[C@H]1C(=O)N1CCC[C@H]1C(=O)N[C@@H](CCC(=O)O)C(=O)N[C@@H](CO)C(=O)N1CCC[C@H]1C(=O)N1CCC[C@H]1C(=O)N[C@@H](CC(C)C)C(=O)N[C@@H](CC(C)C)C(=O)N1CCC[C@H]1C(=O)N1CCC[C@H]1C(=O)N[C@@H](CCCNC(=N)N)C(=O)N[C@@H](CCC(=O)O)C(=O)N1CCC[C@H]1C(=O)N[C@H](C(=O)N[C@@H](CCCNC(=N)N)C(=O)N[C@H](C(=O)N1CCC[C@H]1C(=O)N[C@@H](CC(=O)O)C(=O)N[C@H](C(=O)O)C(C)C)[C@@H](C)O)C(C)C [Peptide P5] (H-ISDPPESPPLLPPREPVRTPDV-OH),> 200,–
C[C@H](N)C(=O)N[C@@H](Cc1ccccc1)C(=O)N[C@@H](Cc1ccccc1)C(=O)N1CCC[C@H]1C(=O)N[C@@H](CC(N)=O)C(=O)N[C@@H](CO)C(=O)N1CCC[C@H]1C(=O)N[C@@H](CO)C(=O)N1CCC[C@H]1C(=O)N[C@@H](Cc1ccccc1)C(=O)N[C@H](C(=O)N1CCC[C@H]1C(=O)N1CCC[C@H]1C(=O)N1CCC[C@H]1C(=O)N1CCC[C@H]1C(=O)N[C@@H](CCC(N)=O)C(=O)N[C@H](C(=O)N1CCC[C@H]1C(=O)N[C@@H](CO)C(=O)N1CCC[C@H]1C(=O)N[C@@H](Cc1c[nH]cn1)C(=O)NCC(=O)N[C@H](C(=O)O)[C@@H](C)O)[C@@H](C)O)[C@@H](C)O [Peptide P7] (H-AFFPNSPSPFTPPPPQTPSPHGT-OH),58.5,Kd [2]: 23 µM
CC(C)C[C@H](NC(=O)[C@@H]1CCCN1C(=O)[C@@H]1CCCN1C(=O)[C@H](CO)NC(=O)[C@@H]1CCCN1C(=O)[C@H](CC(C)C)NC(=O)[C@H](Cc1c[nH]cn1)NC(=O)[C@@H](N)CCCNC(=N)N)C(=O)N[C@H](C(=O)N[C@@H](CCC(N)=O)C(=O)O)[C@@H](C)O [Peptide P8] (H-RHLPSPPLTQ-OH; N-terminus and C-terminus assumed),> 200,–
CC[C@H](C)[C@H](NC(=O)[C@H](Cc1c[nH]cn1)NC(=O)[C@@H](N)CCC(N)=O)C(=O)N1CCC[C@H]1C(=O)N[C@@H](CCCCN)C(=O)N[C@@H](CC(C)C)C(=O)N1CCC[C@H]1C(=O)N1CCC[C@H]1C(=O)N[C@@H](CCCCN)C(=O)N[C@H](C(=O)N[C@@H](Cc1ccc(O)cc1)C(=O)O)[C@@H](C)O [Peptide P10] (H-QHIPKLPPKTY-OH; N-terminus and C-terminus assumed),> 200,–

# The next lines start with results.
Kd [1] [µM],SMILES,further results
> 200,CC(C)C[C@H](NC(=O)[C@@H]1CCCN1C(=O)[C@@H](NC(=O)[C@H](CCCNC(=N)N)NC(=O)[C@@H]1CCCN1C(=O)[C@H](CO)NC(=O)[C@H](CC(N)=O)NC(=O)[C@@H]1CCCN1C(=O)[C@H](C)NC(=O)[C@@H](N)CO)[C@@H](C)O)C(=O)N[C@H](C(=O)N1CCC[C@H]1C(=O)N1CCC[C@H]1C(=O)N1CCC[C@H]1C(=O)N[C@@H](C)C(=O)N[C@@H](CO)C(=O)O)[C@@H](C)O [Peptide P1] (H-SAPNSPRTPLTPPPAS-OH),–
> 200,CC[C@H](C)[C@H](NC(=O)[C@H](C)NC(=O)[C@@H]1CCCN1C(=O)[C@@H]1CCCN1C(=O)[C@H](CO)NC(=O)[C@H](CC(=O)O)NC(=O)[C@@H](N)CC(C)C)C(=O)N1CCC[C@H]1C(=O)N1CCC[C@H]1C(=O)N[C@@H](CCCNC(=N)N)C(=O)N[C@@H](CCC(N)=O)C(=O)N1CCC[C@H]1C(=O)N[C@H](C(=O)N[C@@H](CO)C(=O)N[C@@H](CCCCN)C(=O)O)[C@@H](C)O [Peptide P4] (H-LDSPPAIPPRQPTSK-OH),–
> 200,CC(C)C[C@H](NC(=O)[C@H](Cc1c[nH]cn1)NC(=O)[C@H](CC(C)C)NC(=O)[C@@H]1CCCN1C(=O)[C@H](CO)NC(=O)[C@H](CO)NC(=O)[C@@H](N)CO)C(=O)N[C@@H](CCC(N)=O)C(=O)N1CCC[C@H]1C(=O)N1CCC[C@H]1C(=O)N1CCC[C@H]1C(=O)N[C@@H](CC(C)C)C(=O)NCC(=O)N[C@@H](CCCCN)C(=O)N[C@@H](CCCCN)C(=O)O [Peptide P6] (H-SSSPLHLQPPPLGKK-OH; N-terminus and C-terminus assumed),–
> 200,CC[C@H](C)[C@H](N)C(=O)N[C@@H](C)C(=O)NCC(=O)N1CCC[C@H]1C(=O)N1CCC[C@H]1C(=O)N[C@H](C(=O)N1CCC[C@H]1C(=O)N1CCC[C@H]1C(=O)N[C@@H](CCCNC(=N)N)C(=O)N[C@@H](CCC(N)=O)C(=O)N[C@@H](CO)C(=O)O)C(C)C [Peptide P9] (H-IAGPPVPPRQS-OH),Kd [3]: did not differ from the NCK1-3^wt; Kd ([3]; read-out: Kd): 0.8 µM
> 200,"CC(C)[C@H](N)C(=O)N1CCC[C@H]1C(=O)N[C@H](C(=O)N1CCC[C@H]1C(=O)N1CCC[C@H]1C(=O)N1CCC[C@H]1C(=O)N[C@H](C(=O)N1CCC[C@H]1C(=O)N1CCC[C@H]1C(=O)N[C@@H](CCCNC(=N)N)C(=O)N[C@@H](CCCNC(=N)N)C(=O)N[C@@H](CCCNC(=N)N)C(=O)O)C(C)C)C(C)C [RP1, reference compound]",–
> 200,"CC(C)[C@H](NC(=O)[C@@H]1CCCN1C(=O)[C@@H]1CCCN1C(=O)[C@H](C)NC(=O)[C@H](CCC(=O)O)NC(=O)[C@H](CS)NC(=O)[C@@H](N)CCCNC(=N)N)C(=O)N1CCC[C@H]1C(=O)N1CCC[C@H]1C(=O)N[C@@H](CCCNC(=N)N)C(=O)N[C@@H](CCCNC(=N)N)C(=O)N[C@@H](CCC(=O)O)C(=O)N[C@@H](CCCNC(=N)N)C(=O)NCC(=O)O [RP2, reference compound] (H-RCEAPPVPPRRERG-OH)",–

# — publication PMC10814857, “Functional Classification and Interaction Selectivity Landscape of the Human SH3 Domain Superfamily” (Cells, 2024)
